Measured values taken from the supplement of paper PMC10307832.

How the values were obtained:
Assay in all cases: relative viability (nuclei count vs DMSO), 5 days (fraction); higher = more cells survive
NCI-H522 = test system: NCI-H522
Outline: (§1)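 For relative viability, nuclei counts in treated wells were divided by those in vehicle wells. Lung cancer cell lines had been pin-tool dosed in 1536-well plates the day after seeding and cultured for 5 days, then fixed and stained in one step (final 0.05% Triton X-100, 1% formaldehyde, 1 ug/ml Hoechst) and imaged at 4×. Doses were one drug alone or a fixed anchor-drug dose plus five library-drug doses (not always all listed) in √10 steps, and values are duplicate-plate medians.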

NCI-H3122 = test system: NCI-H3122
Outline: as §1

NCI-H596 = test system: NCI-H596
Outline: as §1

NCI-H727 = test system: NCI-H727
Outline: as §1

HOP-62 = test system: HOP-62
Outline: as §1

NCI-H2170 = test system: NCI-H2170
Outline: as §1

ABC-1 = test system: ABC-1
Outline: as §1

SK-MES-1 = test system: SK-MES-1
Outline: as §1

NCI-H1944 = test system: NCI-H1944
Outline: as §1

EMC-BAC-2 = test system: EMC-BAC-2
Outline: as §1

SW 900 = test system: SW 900
Outline: as §1

LK-2 = test system: LK-2
Outline: as §1

A-427 = test system: A-427
Outline: as §1

NCI-H322M = test system: NCI-H322M
Outline: as §1

NCI-H2009 = test system: NCI-H2009
Outline: as §1

LXF-289 = test system: LXF-289
Outline: as §1

HARA = test system: HARA
Outline: as §1

NCI-H2228 = test system: NCI-H2228
Outline: as §1

SW 1573 = test system: SW 1573
Outline: as §1

PC-3 [JPC-3] = test system: PC-3 [JPC-3]
Outline: as §1

NCI-H1792 = test system: NCI-H1792
Outline: as §1

NCI-H1993 = test system: NCI-H1993
Outline: as §1

In the case of `COc1nc(C)cnc1NS(=O)(=O)c1cccnc1-c1ccc(-c2nnco2)cc1` [Zibotentan] + COc1cccc2cc(-c3nc([C@H]4CC[C@H](C(=O)O)CC4)n4ncnc(N)c34)[nH]c12 [OSI-027] (partner 0.5 µM), the relative viability (NCI-H522; first compound 0.08 µM) is reported as 0.704, the relative viability (NCI-H522; first compound 0.253 µM) is reported as 0.717 and the relative viability (NCI-H522; first compound 0.8 µM) is reported as 0.684. The relative viability (NCI-H522; first compound 2.53 µM) was 0.835, the relative viability (NCI-H3122; first compound 0.08 µM) was 1.01 and the relative viability (NCI-H3122; first compound 0.8 µM) was 0.915. For the same compound, the relative viability (NCI-H3122; first compound 2.53 µM) was 0.957, the relative viability (NCI-H596; first compound 0.08 µM) was 0.776 and the relative viability (NCI-H596; first compound 0.253 µM) was 0.643. The relative viability (NCI-H596; first compound 0.8 µM) was 0.52, the relative viability (NCI-H596; first compound 2.53 µM) was 0.717 and the relative viability (NCI-H727; first compound 0.08 µM) was 0.591. It also gave a relative viability (NCI-H727; first compound 0.253 µM) of 0.499, a relative viability (NCI-H727; first compound 0.8 µM) of 0.601 and a relative viability (NCI-H727; first compound 2.53 µM) of 0.696. It also gave a relative viability (HOP-62; first compound 0.08 µM) of 0.903, a relative viability (HOP-62; first compound 0.253 µM) of 0.871 and a relative viability (HOP-62; first compound 0.8 µM) of 0.878. It also gave a relative viability (HOP-62; first compound 2.53 µM) of 0.931, a relative viability (NCI-H2170; first compound 0.08 µM) of 0.702 and a relative viability (NCI-H2170; first compound 0.253 µM) of 0.761. For the same compound, the relative viability (NCI-H2170; first compound 0.8 µM) was 0.64, the relative viability (NCI-H2170; first compound 2.53 µM) was 0.791 and the relative viability (ABC-1; first compound 0.08 µM) was 0.608. It also gave a relative viability (ABC-1; first compound 0.253 µM) of 0.542, a relative viability (ABC-1; first compound 0.8 µM) of 0.53 and a relative viability (ABC-1; first compound 2.53 µM) of 0.527. For the same compound, the relative viability (SK-MES-1; first compound 0.08 µM) was 0.595, the relative viability (SK-MES-1; first compound 0.253 µM) was 0.228 and the relative viability (SK-MES-1; first compound 0.8 µM) was 0.555. For the same compound, the relative viability (SK-MES-1; first compound 2.53 µM) was 0.702, the relative viability (NCI-H1944; first compound 0.08 µM) was 0.439 and the relative viability (NCI-H1944; first compound 0.253 µM) was 0.393. It also gave a relative viability (NCI-H1944; first compound 0.8 µM) of 0.427, a relative viability (NCI-H1944; first compound 2.53 µM) of 0.465 and a relative viability (EMC-BAC-2; first compound 0.08 µM) of 0.376. The relative viability (EMC-BAC-2; first compound 0.8 µM) was 0.381, the relative viability (EMC-BAC-2; first compound 2.53 µM) was 0.414 and the relative viability (SW 900; first compound 0.08 µM) was 0.623. It also gave a relative viability (SW 900; first compound 0.253 µM) of 0.607, a relative viability (SW 900; first compound 0.8 µM) of 0.528 and a relative viability (SW 900; first compound 2.53 µM) of 0.496. The relative viability (LK-2; first compound 0.08 µM) was 0.207, the relative viability (LK-2; first compound 0.253 µM) was 0.173 and the relative viability (LK-2; first compound 0.8 µM) was 0.244. The relative viability (LK-2; first compound 2.53 µM) was 0.216, the relative viability (A-427; first compound 0.08 µM) was 0.54 and the relative viability (A-427; first compound 0.253 µM) was 0.425. For the same compound, the relative viability (A-427; first compound 0.8 µM) was 0.501, the relative viability (A-427; first compound 2.53 µM) was 0.579 and the relative viability (NCI-H322M; first compound 0.08 µM) was 0.578. For the same compound, the relative viability (NCI-H322M; first compound 0.253 µM) was 0.508, the relative viability (NCI-H322M; first compound 0.8 µM) was 0.657 and the relative viability (NCI-H322M; first compound 2.53 µM) was 0.6. The relative viability (NCI-H2009; first compound 0.08 µM) was 0.677, the relative viability (NCI-H2009; first compound 0.253 µM) was 0.632 and the relative viability (NCI-H2009; first compound 0.8 µM) was 0.711. The relative viability (NCI-H2009; first compound 2.53 µM) was 0.754, the relative viability (LXF-289; first compound 0.08 µM) was 0.82 and the relative viability (LXF-289; first compound 0.253 µM) was 0.794. The relative viability (LXF-289; first compound 0.8 µM) was 0.871, the relative viability (LXF-289; first compound 2.53 µM) was 0.839 and the relative viability (HARA; first compound 0.08 µM) was 0.42. For the same compound, the relative viability (HARA; first compound 0.253 µM) was 0.462, the relative viability (HARA; first compound 0.8 µM) was 0.437 and the relative viability (HARA; first compound 2.53 µM) was 0.715. For the same compound, the relative viability (NCI-H2228; first compound 0.08 µM) was 0.623, the relative viability (NCI-H2228; first compound 0.253 µM) was 0.571 and the relative viability (NCI-H2228; first compound 0.8 µM) was 0.484. For the same compound, the relative viability (NCI-H2228; first compound 2.53 µM) was 0.659, the relative viability (SW 1573; first compound 0.08 µM) was 0.651 and the relative viability (SW 1573; first compound 0.8 µM) was 0.699. It also gave a relative viability (SW 1573; first compound 2.53 µM) of 0.659, a relative viability (PC-3 [JPC-3]; first compound 0.08 µM) of 0.789 and a relative viability (PC-3 [JPC-3]; first compound 0.253 µM) of 0.791. It also gave a relative viability (PC-3 [JPC-3]; first compound 0.8 µM) of 0.737, a relative viability (PC-3 [JPC-3]; first compound 2.53 µM) of 0.89 and a relative viability (NCI-H1792; first compound 0.08 µM) of 0.803. It also gave a relative viability (NCI-H1792; first compound 0.253 µM) of 0.583, a relative viability (NCI-H1792; first compound 0.8 µM) of 0.563 and a relative viability (NCI-H1792; first compound 2.53 µM) of 0.751. The relative viability (NCI-H1993; first compound 0.08 µM) was 0.522, the relative viability (NCI-H1993; first compound 0.253 µM) was 0.494 and the relative viability (NCI-H1993; first compound 0.8 µM) was 0.468. For the same compound, the relative viability (NCI-H1993; first compound 2.53 µM) was 0.525.
